Laboratory results as given in US5583115A, “Dialkyltiacumicin compounds” (Abbott Laboratories, priority 1995, dated 1996).
Converted amounts (≈) assume the structure as drawn.

Tests used:
C. difficile = test: MIC agar dilution, anaerobic bacteria; format: cell-based
S. pyogenes = test: MIC agar dilution, aerobic and facultative bacteria
Propionibacterium acnes = test: MIC agar dilution, anaerobic bacteria; format: cell-based; details: Culture # 1775
Bacteriodes fragilis = test: MIC agar dilution, anaerobic bacteria; format: cell-based
Enterobacter aerogenes = test: MIC agar dilution, aerobic and facultative bacteria; details: Culture # 1677
Veillonella parvula = test: MIC agar dilution, anaerobic bacteria; format: cell-based; details: Culture # 2479
E. coli = test: MIC agar dilution, aerobic and facultative bacteria; format: cell-based
Fusobacterium species = test: MIC agar dilution, anaerobic bacteria; format: cell-based; details: Culture # 1770
Mycobacterium smegmatis = test: MIC agar dilution, aerobic and facultative bacteria; details: Culture # 5171
B. bivius = test: MIC agar dilution, anaerobic bacteria; format: cell-based; details: Culture # 2483
Streptococcus bovis = test: MIC agar dilution, aerobic and facultative bacteria; details: Culture # 1699
P. anaerobius = test: MIC agar dilution, anaerobic bacteria; format: cell-based; details: Culture # 1780
B. disiens = test: MIC agar dilution, anaerobic bacteria; format: cell-based; details: Culture # 1763
Clostridium difficile = test: In vivo hamster model of pseudomembranous Clostridium difficile induced colitis; details: for % Weight change, Day 22 / % Mortality: days 8-14; for % Mortality: expiring by day 20
Procedure: (Suppression of normal gastrointestinal bacteria by the ciprofloxacin permitted the drug-resistant C. difficile to predominate.) Five additional hamsters were segregated as a noninfected control group.
The infected animals were divided into three groups comprising (a) 10 untreated animals; (b) 15 vancomycin-treated animals (5 each at 20, 10 and 1 mg/kg/day orally on days 8-14); and (c) 10 animals treated with the compound of Example 2 (5 each at 10 and 1 mg/kg/day on days 8-14). The subject animals were monitored for (a) body weight (infected hamsters lose significant body mass), and (b) mortality (percent expiring by day 20).

S. epidermidis = test: MIC agar dilution, aerobic and facultative bacteria; details: Culture # 1666
Pseudomonas aeruginosa = test: as above
P. magnus = test: MIC agar dilution, anaerobic bacteria; format: cell-based; details: Culture # 1778
[1] = test system: Peptostreptococcus asaccharolyticus; test: MIC agar dilution, anaerobic bacteria; format: cell-based; details: Culture # 1777
Staphylococcus aureus = test: MIC agar dilution, aerobic and facultative bacteria
Nocardia asteroides = test: as above; details: Culture # 5173
Klebsiella pneumoniae = test: as above; details: Culture # 2518
B. thetaiotaomicron = test: MIC agar dilution, anaerobic bacteria; format: cell-based
[2] = test system: anaerobic pathogens, in particular Clostridium species; test: In vitro activity against anaerobic pathogens, Wilkins-Chalgren agar; format: cell-based; details: MIC, Table 2
Description: It has now been established that novel antimicrobial agents may be obtained by chemical modification of tiacumicins, which are antibiotics isolated from the fermentation broth and mycelium of Dactylosporangium aurantiacum subsp. hamdenensis subsp. nov. Tiacumicin antibiotics are described in U.S. Pat. No. 4,918,174 (issued Apr. 17, 1990 and incorporated herein by reference), and comprise the compounds tiacumicin A, tiacumicin B, tiacumicin C, tiacumicin D, tiacumicin E and tiacumicin F. The compounds of the present invention, which are derivatives of the above tiacumicins, are found to have in vitro activity against a variety of bacterial pathogens and in particular against Clostridium when evaluated in an assay utilizing Wilkins-Chalgren agar in anaerobic conditions. It is therefore expected that these compounds will be useful in the treatment of bacterial infections in mammals, and in particular in the treatment of certain instances of colitis.

[3] = test system: Acinetobacter calcoaceticus; test: MIC agar dilution, aerobic and facultative bacteria; details: Culture # 1845
Enterococcus faecium = test: as above; details: Culture # 1668
Micrococcus luteus = test: as above
Candida albicans = test: as above; details: Culture # 3622
C. ramosum = test: MIC agar dilution, anaerobic bacteria; format: cell-based; details: Culture # 2482
B. vulgatus = test: MIC agar dilution, anaerobic bacteria; format: cell-based

In the case of `CCc1c(Cl)c(OC)c(Cl)c(OC)c1C(=O)OC1C(C)OC(OCC2=CC=CCC(O)C(C)=CC(CC)C(OC3OC(C)(C)C(OC(=O)C(C)C)C(O)C3O)C(C)=CC(C)=CCC(C(C)O)OC2=O)C(OC)C1O` (centres unmarked) [Example 2, 3"', 5"'-Di-O-methyltiacumicin B], the MIC (C. difficile; Culture # 1496) is reported as 0.25 µg/mL (≈ 0.23 µM), the MIC (C. difficile; Culture # 1497) is reported as 0.5 µg/mL (≈ 0.46 µM) and the MIC (C. difficile; Culture # 1774) is reported as 0.25 µg/mL (≈ 0.23 µM). For the same molecule, the MIC (C. difficile; Culture # 2025) was 0.5 µg/mL (≈ 0.46 µM), the MIC (C. difficile; Culture # 2480) was 0.25 µg/mL (≈ 0.23 µM) and the MIC (C. difficile; Culture # 2528) was 0.5 µg/mL (≈ 0.46 µM). For the same molecule, the MIC (C. difficile; Culture # 2529) was 0.5 µg/mL (≈ 0.46 µM), the MIC (S. pyogenes; Culture # 1671) was > 100 µg/mL and the MIC (S. pyogenes; const., Culture # 1672) was 25 µg/mL (≈ 23 µM). For the same molecule, the MIC (S. pyogenes; inducible, Culture # 2548) was 25 µg/mL (≈ 23 µM), the MIC (Propionibacterium acnes) was > 2 µg/mL and the MIC (Bacteriodes fragilis; Culture # 1756, Wilkins-Chalgren agar, 37° C., 48 hours) was > 2 µg/mL. The MIC (Bacteriodes fragilis; Culture # 1757) was > 2 µg/mL, the MIC (Bacteriodes fragilis; Culture # 1758) was > 2 µg/mL and the MIC (Bacteriodes fragilis; Culture # 1999) was > 2 µg/mL. The MIC (Enterobacter aerogenes) was > 100 µg/mL, the MIC (Veillonella parvula) was > 2 µg/mL and the MIC (E. coli; DC-2, Culture # 1674) was > 100 µg/mL. The MIC (E. coli; H560, Culture # 1675) was > 100 µg/mL, the MIC (E. coli; Juhl, Culture # 1673) was > 100 µg/mL and the MIC (E. coli; KNK437, Culture # 1676) was > 100 µg/mL. The MIC (E. coli; SS, Culture # 2489) was > 100 µg/mL, the MIC (Fusobacterium species) was > 2 µg/mL and the MIC (Mycobacterium smegmatis) was 1.56 µg/mL (≈ 1.44 µM). For the same molecule, the MIC (B. bivius) was > 2 µg/mL, the MIC (Streptococcus bovis) was > 100 µg/mL and the MIC (P. anaerobius) was > 2 µg/mL. For the same molecule, the MIC (B. disiens) was > 2 µg/mL, the “body mass” value (Clostridium difficile; 1 mg/kg) was “maintained body mass closest to that of non-infected controls” and the “% Weight change, Day 22” value (Clostridium difficile; 1 mg/kg/day) was 154%. The “% Mortality” value (Clostridium difficile; 1 mg/kg/day) was 20%, the “% Weight change, Day 22” value (Clostridium difficile; 10 mg/kg/day) was 140% and the “% Mortality” value (Clostridium difficile; 10 mg/kg/day) was 60%. The “treatment of antibiotic-associated colitis” value (Clostridium difficile; Table 3) was “effectively treat an antibiotic-associated colitis”, the “survival rate” value (Clostridium difficile; versus untreated infected controls or vancomycin) was “higher survival rate than either untreated infected controls or in hamsters treated with vancomycin” and the MIC (S. epidermidis) was 50 µg/mL (≈ 46 µM). For the same molecule, the MIC (Pseudomonas aeruginosa; Culture # 1679) was > 100 µg/mL, the MIC (Pseudomonas aeruginosa; Culture # 1680) was > 100 µg/mL and the MIC (Pseudomonas aeruginosa; Culture # 1681) was > 100 µg/mL. For the same molecule, the MIC (Pseudomonas aeruginosa; Culture # 1682) was 100 µg/mL (≈ 92.1 µM), the MIC (Pseudomonas aeruginosa; cipro R, Culture # 1919) was > 100 µg/mL and the MIC (Pseudomonas aeruginosa; cipro R, Culture # 1920) was > 100 µg/mL. For the same molecule, the MIC (P. magnus) was > 2 µg/mL, the MIC [1] was > 2 µg/mL and the MIC (Staphylococcus aureus; Culture # 1662, brain heart infusion agar, 37° C., 20 hours) was 100 µg/mL (≈ 92.1 µM). For the same molecule, the MIC (Staphylococcus aureus; Culture # 1664) was 50 µg/mL (≈ 46 µM), the MIC (Staphylococcus aureus; Culture # 1690) was 100 µg/mL (≈ 92.1 µM) and the MIC (Staphylococcus aureus; Culture # 2124) was > 100 µg/mL. For the same molecule, the MIC (Staphylococcus aureus; Culture # 2130) was > 100 µg/mL, the MIC (Staphylococcus aureus; Culture # 2498) was > 100 µg/mL and the MIC (Staphylococcus aureus; cipro res., Culture # 3384) was 100 µg/mL (≈ 92.1 µM). The MIC (Nocardia asteroides) was 0.39 µg/mL (≈ 0.359 µM), the MIC (Klebsiella pneumoniae) was > 100 µg/mL and the MIC (B. thetaiotaomicron; Culture # 1764) was > 2 µg/mL. For the same molecule, the MIC (B. thetaiotaomicron; Culture # 1765) was > 2 µg/mL, the MIC (B. thetaiotaomicron; Culture # 1766) was > 2 µg/mL and the “activity against anaerobic pathogens” value [2] was “substantial activity against anaerobic pathogens and in particular against Clostridium species”. For the same molecule, the MIC [3] was > 100 µg/mL, the MIC (Enterococcus faecium) was > 100 µg/mL and the MIC (Micrococcus luteus; Culture # 2493) was 0.1 µg/mL (≈ 0.0921 µM). For the same molecule, the MIC (Micrococcus luteus; Culture # 2517) was 0.1 µg/mL (≈ 0.0921 µM), the MIC (Candida albicans) was > 100 µg/mL and the MIC (C. ramosum) was > 2 µg/mL. For the same molecule, the MIC (B. vulgatus; Culture # 1762) was > 2 µg/mL and the MIC (B. vulgatus; Culture # 2481) was > 2 µg/mL.
